Reference: patent US20230146675A1, “PYRIMIDO[5,4-d]PYRIMIDINE DERIVATIVES AS ENT INHIBITORS FOR THE TREATMENT OF CANCERS, AND COMBINATION THEREOF WITH ADENOSINE RECEPTOR ANTAGONISTS” (ITEOS BELGIUM SA, priority 2020, published 2023)
Like-named read-outs stand apart in the source and are kept apart here.

Experiments:
human ENT1 [1] = biological target: T1, human ENT1 (Homo sapiens, UniProt Q99808); assay: Uridine transport inhibition assay (3H-uridine uptake, MDCKII-ENT1-LV cells); format: cell-based; details: 3H-uridine (1 μM), 1 min at 25° C.
T1 sequence (Q99808 1-456): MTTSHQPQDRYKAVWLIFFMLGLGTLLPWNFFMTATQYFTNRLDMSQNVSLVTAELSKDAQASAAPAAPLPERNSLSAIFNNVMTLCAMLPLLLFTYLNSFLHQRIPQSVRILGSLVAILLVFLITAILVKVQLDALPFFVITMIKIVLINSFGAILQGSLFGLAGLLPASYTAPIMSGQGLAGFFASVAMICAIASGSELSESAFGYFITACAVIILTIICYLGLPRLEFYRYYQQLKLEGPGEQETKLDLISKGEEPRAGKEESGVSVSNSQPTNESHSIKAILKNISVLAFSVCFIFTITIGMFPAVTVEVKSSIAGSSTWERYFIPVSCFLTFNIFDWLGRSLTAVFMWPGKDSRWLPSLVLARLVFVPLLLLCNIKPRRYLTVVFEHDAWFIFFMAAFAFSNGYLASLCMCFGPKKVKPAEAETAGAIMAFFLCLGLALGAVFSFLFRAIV
Description: Purpose. The aim of this study was to determine the potency of equilibrative nucleoside transporter 1 (ENT1) inhibitors by measuring ENT1-mediated transport is the cellular uptake assay. The human ENT1 transporter can be stably expressed in Madin-Darby Canine Kidney II (MDCKII) cells via transduction. Uridine is efficiently transported by ENT1 and is used as probe in the assay as 3H-uridine. The interaction is detected as the modulation of the initial rate of 3H-uridine transport by human ENT1 into MDCKII-ENT1-LV cells stably expressing ENT1 uptake transporter.

[2] = tested on: stimulated primary human T cells; assay: T cell proliferation assay (rescue of proliferation in presence of 100 uM ATP); format: cell-based
Procedure: Purpose. The aim of this study was to determine the potency of equilibrative nucleoside transporter 1 (ENT1) inhibitors to rescue proliferation by stimulated primary human T cells incubated in the presence of 100 uM Adenosine triphosphate (ATP) with: • Condition A: X-VIVO15 • Condition B: X-VIVO15, 2% Human Serum Albumine (HSA) and 0.1% α-1-Acid Glycoprotein (AAG)
Method. Cryopreserved purified human CD3+ T cells were thawed and washed twice with RPMI1640 medium, UltraGlutamine containing 10% hiFBS.
Cells were suspended in PBS containing 10% hiFBS. Cells were stained with CFSE by adding 2 μM solution in PBS, to get a final 1 μM CFSE solution. Cells were incubated while rotating for 5 minutes. Reaction was stopped by adding PBS with 10% FBS and cells were centrifuged for 5 minutes at 1500 rpm.
Cells were resuspended at 1.6×10^6 cells/mL, either in X-VIVO15 medium or in 4% Human Serum Albumin and 0.2% α-1-Acid Glycoprotein. 50 μL of cell suspension (8×10^4 T cells) was added to wells of sterile round-bottom 96-well plates. Cells were activated by adding 50 μL of anti-CD3 anti-CD28 coated microbeads, suspended either in XVIVO-15 medium or in 4% HSA and 0.2% α-1-Acid Glycoprotein, at a ratio of one microbead per two cells.
Serial dilutions of the ENT1 inhibitors were prepared in X-VIVO15 from 10 mM stock solutions in DMSO, and 50 μL was added to the wells.
ATP powder was diluted in X-VIVO15, and 50 μL of this compound was added to the wells to reach a final assay concentration of 100 μM. Final volume of 200 μL.
The experiments were also performed in 384 well plates—all volumes reduced by a factor of 4 ([…]) with a final volume of 50 μL.
Experiments were performed in duplicate. The cells were placed in a 37° C. humidified tissue culture incubator with 5% CO2 for 72 hours for 96 well plates, 96 hours for 384 well plates. After 72 or 96 hours, proliferation was measured determined by CFSE dilution via flow cytometry.
Results. Compounds of the invention have good ENT1 inhibitory properties.

human ENT1 [3] = biological target: T1, human ENT1; assay: ENT1 binding assay (competition with Sahenta-DY647 on JAR cells); design: JAR cells expressing ENT1 were bought from ATCC; host or cells: JAR cells; details: binned IC50
Outline: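 JAR cells were incubated with test compounds and the fluorescent ligand Sahenta-DY647 in competition. Plates were washed twice by centrifugation (4 min, 400 rcf, 4 °C). Binding potency was derived from the final fluorescence.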

[4] = tested on: human alpha 1-acid glycoprotein (AAG); assay: AAG binding assay - HPLC assay
Procedure: Purpose. […] The principle of the assay is a liquid chromatography on a human AAG protein immobilized onto a silica support for separations of compounds following their affinity to AAG protein. By measuring the retention time, the binding to AAG can be determined relatively to the references.
Method. […] Mobile Phase A: 50 mM Ammonium acetate in deionized water; Mobile Phase B: Isopropanol; Column Oven: 8° C.; PDA(nm): 230; Flow Rate (mL/min): 0.2. Test Concentration (μmol/L): 100 (from 10 mmol/L DMSO solution diluted 100 folds by 50 mM Ammonium acetate in deionized water: Isopropanol (1:1)). Generic Gradient: Time (min): 0.01; 5; 13; 14; 20.

human AAG protein = assay: AAG binding assay - dialysis assay; details: 2 μM, 37° C., 4-hr
Procedure: Purpose. The aim of this assay is to determine the binding of a compound of interest to the human AAG protein using the robust method of dialysis.
Material. […] The dialysis Buffer (100 mM Phosphate Buffered Saline, pH 7.4) has been prepared by dissolving 28.56 g Na2HPO4.12H2O (AR grade) and 3.12 g NaH2PO4.2H2O (AR grade) into a final volume of 1000 mL ultra pure water, mixed, and adjusted the resulting solution with 1% phosphoric acid or 1 M sodium hydroxide to pH 7.4±0.1. Stored the final solution in 2-8° C. refrigerator within an expiration of a month after preparation.
Method: The dialysis membrane is soaked in dialysis buffer at 4° C. overnight. The following day the membrane is separated into two strips and then soaked in ethanol: water (20:80 v:v) for 20 mins. Then the membrane was rinsed with ultra-pure water 3-4 times. Prepared 400 μM working solution by diluting the stock solution (10 mM) with appropriate volume of DMSO. 5 μL aliquots of each working solution were spiked into 1000 μL of blank protein (matrix) to achieve a 2 μM final concentration as loading solution. The plates of loading solution were mixed well. Aliquots of 150 μL of loading solution were loaded in triplicate to the donor side of each dialysis well and dialyzed against an equal volume of dialysis buffer. […]
The concentration was calculated using the peak area ratio of analyte and internal standard.

[5] = Condition A: X-VIVO15, read-out: TCell proliferation (Condition A) IC50
[6] = Condition B: X-VIVO15, 2% HSA and 0.1% AAG, read-out: TCell proliferation (Condition B) IC50

| Compound | IC50 (human ENT1 [1]) [nM] | IC50 [2, 5] [nM] | IC50 [2, 6] [nM] | IC50 (human ENT1 [3]) [nM] | also measured |
| --- | --- | --- | --- | --- | --- |
| CCCN(C)c1nc(N(CCOC)CCOC)nc2c(N3CCC(OC)CC3)nc(N(CCOC)CCOC)nc12 [Compound 68, N2,N2,N6,N6-tetrakis(2-methoxyethyl)-8-(4-methoxypiperidin-1-yl)-N4-methyl-N4-propylpyrimido[5,4-d]pyrimidine-2,4,6-triamine] | < 100 | 500 to 1000 | 500 to 1000 | < 100 |  |
| CC(C)NCC(O)COc1cccc2ccccc12 (stereo not shown) [Propranolol, reference compound] |  |  |  |  | retention time (rt) on immobilized human AAG column ([4]; human, 100 μmol/L): 14.05 min |
| COCCN(CCOC)c1nc(N2CCC(OC)CC2)c2nc(N(CCOC)CCOC)nc(NCc3ccc(F)c(C#N)c3)c2n1 [Compound 149, 5-(((2,6-bis(bis(2-methoxyethyl)amino)-8-(4-methoxypiperidin-1-yl)pyrimido[5,4-d]pyrimidin-4-yl)amino)methyl)-2-fluorobenzonitrile] | < 100 | 100 to 500 | 100 to 500 | < 100 |  |
| COCCN(CCOC)c1nc(N2CCC(OC)CC2)c2nc(N(CCO)CCO)nc(N3CCC(OC)CC3)c2n1 [Compound 27, 2,2′-((6-(bis(2-methoxyethyl)amino)-4,8-bis(4-methoxypiperidin-1-yl)pyrimido[5,4-d]pyrimidin-2-yl)azanediyl)diethanol] |  |  |  | 500 to 1000 | Human alpha-1-acid glycoprotein (AAG) (1 mg/mL) Unbound (human AAG protein): 89.4% Unbound |
| COCCN(CCOC)c1nc(N2CCCC3(COC3)C2)c2nc(N(CCOC)CCOC)nc(N3CCC(OC)CC3)c2n1 [Compound 97, N2,N2,N6,N6-tetrakis(2-methoxyethyl)-4-(4-methoxypiperidin-1-yl)-8-(2-oxa-6-azaspiro[3.5]nonan-6-yl)pyrimido[5,4-d]pyrimidine-2,6-diamine] |  |  |  | < 100 | AAG HPLC ([4]; AAG binding by HPLC retention time (rt) on CHIRALPAK AGP column, binned): −− (rt below 6 min: −−) |
| COCCN(CCOC)c1nc(N2CCC(OC)CC2)c2nc(N(CCOC)CCOC)nc(N(C)Cc3cccc(OC)c3)c2n1 [Compound 171, N4-(3-methoxybenzyl)-N2,N2,N6,N6-tetrakis(2-methoxyethyl)-8-(4-methoxypiperidin-1-yl)-N4-methylpyrimido[5,4-d]pyrimidine-2,4,6-triamine] | < 100 | 100 to 500 | 100 to 500 | < 100 |  |
| COCCN(CCOC)c1nc(N2CCC(OC)CC2)c2nc(N(CCOC)CCOC)nc(N(C)Cc3cccnc3)c2n1 [Compound 81, N2,N2,N6,N6-tetrakis(2-methoxyethyl)-8-(4-methoxypiperidin-1-yl)-N4-methyl-N4-(pyridin-3-ylmethyl)pyrimido[5,4-d]pyrimidine-2,4,6-triamine] | < 100 | 100 to 500 | 500 to 1000 | < 100 |  |
| COCCN(CCOC)c1nc(N2CCC(OC)CC2)c2nc(N(CCOC)Cc3cc(OC)c(OC)c(OC)c3)nc(N3CCC(OC)CC3)c2n1 [Compound 184, N2,N2,N6-tris(2-methoxyethyl)-4,8-bis(4-methoxypiperidin-1-yl)-N6-(3,4,5-trimethoxybenzyl)pyrimido[5,4-d]pyrimidine-2,6-diamine] | < 100 | < 100 | < 100 | < 100 |  |
| COCCN(CCOC)c1nc(N2CCC(OC)CC2)c2nc(N(CCO)Cc3cc(OC)c(OC)c(OC)c3)nc(N3CCC(OC)CC3)c2n1 [Compound 186, 2-((6-(bis(2-methoxyethyl)amino)-4,8-bis(4-methoxypiperidin-1-yl)pyrimido[5,4-d]pyrimidin-2-yl)(3,4,5-trimethoxybenzyl)amino)ethanol] | < 100 | < 100 | 100 to 500 | < 100 |  |
| COCCN(CCOC)c1nc(N2CCOC(C)C2)c2nc(N(CCOC)CCOC)nc(N3CCC(OC)CC3)c2n1 (stereo not shown) [Compound 87, N2,N2,N6,N6-tetrakis(2-methoxyethyl)-4-(4-methoxypiperidin-1-yl)-8-(2-methylmorpholino)pyrimido[5,4-d]pyrimidine-2,6-diamine] |  |  |  | 100 to 500 |  |
| COCCN(CCOC)c1nc(N2CCC(OC)CC2)c2nc(N(CCOC)CCOC)nc(NCc3ccc(OC)cc3)c2n1 [Compound 47, N4-(4-methoxybenzyl)-N2,N2,N6,N6-tetrakis(2-methoxyethyl)-8-(4-methoxypiperidin-1-yl)pyrimido[5,4-d]pyrimidine-2,4,6-triamine] |  |  |  | 100 to 500 |  |
| COCCN(CCOC)c1nc(N2CCN(C)C(=O)C2)c2nc(N(CCOC)CCOC)nc(NCc3ccccc3)c2n1 [Compound 190, 4-(8-(benzylamino)-2,6-bis(bis(2-methoxyethyl)amino)pyrimido[5,4-d]pyrimidin-4-yl)-1-methylpiperazin-2-one] |  |  |  | < 100 |  |
| COCCN(CCOC)c1nc(N2CCN(c3nnc(C)o3)CC2)c2nc(N(CCOC)CCOC)nc(N3CCN(c4nnc(C)o4)CC3)c2n1 [Compound 130, N2,N2,N6,N6-tetrakis(2-methoxyethyl)-4,8-bis(4-(5-methyl-1,3,4-oxadiazol-2-yl)piperazin-1-yl)pyrimido[5,4-d]pyrimidine-2,6-diamine] |  |  |  | 500 to 1000 |  |
| COCCN(CCOC)c1nc(N2CCN(C)C(=O)C2)c2nc(N3CCN(C(=O)OC)CC3)nc(N3CCC(OC)CC3)c2n1 [Compound 284, methyl 4-(6-(bis(2-methoxyethyl)amino)-4-(4-methoxypiperidin-1-yl)-8-(4-methyl-3-oxopiperazin-1-yl)pyrimido[5,4-d]pyrimidin-2-yl)piperazine-1-carboxylate] |  |  |  | 500 to 1000 |  |
| COCCN(CCOC)c1nc(N2CCC(OC)CC2)c2nc(N(CCOC)CCOC)nc(NCc3cncs3)c2n1 [Compound 59, N2,N2,N6,N6-tetrakis(2-methoxyethyl)-8-(4-methoxypiperidin-1-yl)-N4-(thiazol-5-ylmethyl)pyrimido[5,4-d]pyrimidine-2,4,6-triamine] |  |  |  | 100 to 500 |  |
| COCCN(CCOC)c1nc(N2CCN(C)C(=O)C2)c2nc(N(CCOC)CCOC)nc(N3CCC(F)(F)CC3)c2n1 [Compound 206, 4-(2,6-bis(bis(2-methoxyethyl)amino)-8-(4,4-difluoropiperidin-1-yl)pyrimido[5,4-d]pyrimidin-4-yl)-1-methylpiperazin-2-one] |  |  |  | < 100 |  |
| COCCN(CCOC)c1nc(N2CCC(OC)CC2)c2nc(N(CCOC)CCOC)nc(NCC(C)(C)C)c2n1 [Compound 50, N2,N2,N6,N6-tetrakis(2-methoxyethyl)-8-(4-methoxypiperidin-1-yl)-N4-neopentylpyrimido[5,4-d]pyrimidine-2,4,6-triamine] |  |  |  | 100 to 500 |  |
